Reference: publication PMC7493195 (Journal of medicinal chemistry, 2020)

Assays:
[1] = system: panel of 468 human kinases; settings: 1 μM, 468 kinases, cited from earlier work
FGFR1 = FGFR1 (Homo sapiens, UniProt P11362); assay: Z’LYTE / LanthaScreen kinase assay; assay type: biochemical
SRC = SRC (Homo sapiens, UniProt P12931); assay: Z’LYTE / LanthaScreen kinase assay; assay type: biochemical
kinases = settings: cited from earlier work
p-SRC^Y416 [2] = settings: H1975 and HCC827 cells, 1 μM, 2 h
p-SRC^Y416 [3] = settings: H1975, 1 μM, 2 h, then 0, 2, 4 h postwashout
p-SRC^Y416 [4] = settings: 3 doses of 5 mg/kg IP, 2 and 4 h after last dose
[5] = Stability in mouse liver microsomes; assay type: in vitro ADME
MEK1/2 and ERK1/2 = assay: Cellular target engagement, TL13–68 competition pulldown, MEK1/2 and ERK1/2; assay type: cell-based; settings: H1975 and HCC827 cells, 1 μM, 2 h
[6] = system: MDA-MB-231, H1975 and HCC827 cells; settings: 72 h, three cell lines

Sequence of FGFR1 (P11362 22-822): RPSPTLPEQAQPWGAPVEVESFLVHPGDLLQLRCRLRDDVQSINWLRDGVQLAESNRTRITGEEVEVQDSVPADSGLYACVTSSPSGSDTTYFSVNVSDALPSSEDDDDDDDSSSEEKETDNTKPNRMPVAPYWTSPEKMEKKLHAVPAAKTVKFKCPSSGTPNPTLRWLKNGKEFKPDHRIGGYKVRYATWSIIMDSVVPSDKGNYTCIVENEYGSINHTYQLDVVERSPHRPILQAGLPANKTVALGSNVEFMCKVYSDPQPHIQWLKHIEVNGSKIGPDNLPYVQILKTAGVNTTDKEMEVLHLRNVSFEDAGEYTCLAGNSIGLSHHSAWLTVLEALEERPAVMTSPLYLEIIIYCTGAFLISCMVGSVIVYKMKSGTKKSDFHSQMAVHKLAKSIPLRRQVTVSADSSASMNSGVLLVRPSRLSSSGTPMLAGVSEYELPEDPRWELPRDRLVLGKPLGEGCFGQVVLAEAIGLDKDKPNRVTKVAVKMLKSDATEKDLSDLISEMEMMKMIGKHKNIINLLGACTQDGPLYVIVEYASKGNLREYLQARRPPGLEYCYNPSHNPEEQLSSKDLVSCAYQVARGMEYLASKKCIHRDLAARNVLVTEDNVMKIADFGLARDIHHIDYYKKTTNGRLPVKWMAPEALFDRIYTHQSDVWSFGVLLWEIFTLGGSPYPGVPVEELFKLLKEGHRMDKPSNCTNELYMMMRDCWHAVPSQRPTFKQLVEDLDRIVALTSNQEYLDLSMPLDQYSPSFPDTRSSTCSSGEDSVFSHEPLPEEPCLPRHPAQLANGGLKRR
Sequence of SRC (P12931 whole entry): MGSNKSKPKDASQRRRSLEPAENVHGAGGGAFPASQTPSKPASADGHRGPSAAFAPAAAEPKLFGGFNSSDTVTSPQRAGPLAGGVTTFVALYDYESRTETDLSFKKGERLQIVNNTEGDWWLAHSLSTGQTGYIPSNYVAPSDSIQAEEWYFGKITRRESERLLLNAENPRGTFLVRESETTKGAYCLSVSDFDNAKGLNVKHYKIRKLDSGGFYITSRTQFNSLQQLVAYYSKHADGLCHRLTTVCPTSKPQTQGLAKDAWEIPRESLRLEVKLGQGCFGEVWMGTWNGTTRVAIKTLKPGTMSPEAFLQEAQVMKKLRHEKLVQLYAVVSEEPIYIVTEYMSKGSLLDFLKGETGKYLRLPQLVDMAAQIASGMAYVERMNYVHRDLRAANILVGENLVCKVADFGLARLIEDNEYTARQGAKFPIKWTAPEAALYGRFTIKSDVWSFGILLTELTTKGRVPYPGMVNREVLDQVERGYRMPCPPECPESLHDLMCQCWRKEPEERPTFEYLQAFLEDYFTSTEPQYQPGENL

C=CC(=O)Nc1ccccc1Nc1nc(Nc2ccc(N3CCN(C)CC3)cc2)ncc1Cl [SM1–71]
selectivity score S(35) ([1]; specified percent inhibition 35%): 0.43
number of kinases hit [1]: more than 100 kinases

C=CC(=O)Nc1ccccc1Nc1nc(Nc2ccc(N3CCN(C)CC3)cc2)ncc1OCc1ccc(Oc2ccccc2)cc1 [Compound 10c, N-(2-((2-((4-(4-Methylpiperazin-1-yl)phenyl)amino)-5-((4-phenoxybenzyl)oxy)pyrimidin-4-yl)amino)phenyl)acrylamide]
loss of activity on FGFR1 compared to SM1–71 (FGFR1): 20 fold

C=CC(=O)Nc1ccccc1Nc1nc(Nc2ccc(N3CCC(N4CCN(C)CC4)CC3)cc2)ncc1C(=O)Nc1c(C)cccc1Cl [Compound 17c, 4-((2-Acrylamidophenyl)amino)-N-(2-chloro-6-methylphenyl)-2-((4-(4-(4-methylpiperazin-1-yl)piperidin-1-yl)phenyl)amino)-pyrimidine-5-carboxamide]
activity on SRC, in words (SRC): loss of binding

C=CC(=O)Nc1ccccc1Nc1nc(Nc2ccc(N3CCN(C)CC3)cc2)ncc1C(=O)Nc1ccc(Oc2ccccc2)cc1 [Compound 15i, 4-((2-Acrylamidophenyl)amino)-2-((4-(4-methylpiperazin-1-yl)-phenyl)amino)-N-(4-phenoxyphenyl)pyrimidine-5-carboxamide]
activity on FGFR1, in words (FGFR1): complete loss of activity
activity on SRC, in words (SRC): complete loss of activity

Cc1nc(Nc2ncc(C(=O)Nc3c(C)cccc3Cl)s2)cc(N2CCN(CCO)CC2)n1 [dasatinib]
number of kinases inhibited (kinases): > 30 kinases

C=CC(=O)Nc1ccccc1Nc1nc(Nc2ccc(N3CCN(C)CC3)cc2)ncc1C(=O)Nc1c(C)cccc1Cl [Compound 15a, 4-((2-Acrylamidophenyl)amino)-N-(2-chloro-6-methylphenyl)-2-((4-(4-methylpiperazin-1-yl)phenyl)amino)pyrimidine-5-carboxamide]
inhibition of p-SRC^Y416 signaling (p-SRC^Y416 [2]): inhibited p-SRC^Y416 signaling
inhibition of p-SRC^Y416 signaling after washout (p-SRC^Y416 [3]): potent and sustained inhibition of p-SRC^Y416 signaling up to 4 h postwashout
inhibition of p-SRC^Y416 in spleen (p-SRC^Y416 [4]): inhibition of p-SRC^Y416 at 2 and 4 h postdosing
half-life [5]: 5.2 min
cellular engagement of MEK1/2 or ERK1/2 (MEK1/2 and ERK1/2): did not engage

CN1CCN(CCOc2cc(OC3CCOCC3)c3c(Nc4c(Cl)ccc5c4OCO5)ncnc3c2)CC1 [AZD0530]
growth inhibitory potency, in words [6]: weaker potency compared to 15a

COc1cc(Nc2c(C#N)cnc3cc(OCCCN4CCN(C)CC4)c(OC)cc23)c(Cl)cc1Cl [bosutinib]
number of kinases inhibited (kinases): > 45 kinases
